Measured values: US20260091050A1, “ADVANTAGEOUS ANTI-HCV COMBINATION THERAPY” (Atea Pharmaceuticals, Inc., priority 2021, published 2026)

Tests used:
[1] = tested on: HCV NS5A; conditions: wide range of HCV genotypes and common clinical mutants; cited from earlier work
[2] = tested on: GT1 HCV; test: Multiple dose study, 7 days QD, non-cirrhotic GT1 HCV-infected patients (Part C); format: in vivo, human; conditions: Part C, N = 6
Method: (§1) Doses were administered as the Compound 1-A salt base. The free base Compound 1 equivalent is often given in parenthesis.
(§2) Part C was a randomized, double-blind, placebo-controlled MAD study divided into three cohorts. […] The dose escalation only proceeded following satisfactory review of the data.
(§3) HCV-infected patients were treatment-naïve with HCV RNA ≥5 log 10 IU/mL. HCV RNA was quantified using COBAS® AmpliPrep TaqMAN® v2.0 with LLQ of 15 IU/mL. Plasma drug levels were measured using LC-MS/MS. […] Mean ages of enrolled subjects were 44, 39, and 56 years in the non-cirrhotic GT1b 600 mg dose cohort, non-cirrhotic GT3 cohort, and the cirrhotic cohort, respectively.

[3] = tested on: GT3 HCV; test: 600 mg QD for 7 days in non-cirrhotic GT3 HCV-infected patients (Part D); format: in vivo, human; conditions: Part D, 600 mg/day, N = 6
Method: as §1, §2, §3

[4] = tested on: GT1, GT2, or GT3 HCV; test: 600 mg QD for 7 days in Child-Pugh A cirrhotic patients with GT1, GT2 or GT3 HCV (Part E); format: in vivo, human; conditions: Part E, 600 mg/day
Method: Doses were administered as the Compound 1-A salt base. The free base Compound 1 equivalent is often given in parenthesis. […]
as §3

COC(=O)N[C@H](C(=O)N1CCC[C@H]1c1ncc(-c2cc(F)c3c(c2)O[C@@H](c2cnc(C4CC4)s2)n2c-3cc3cc(-c4cnc([C@@H]5CCCN5C(=O)[C@@H](NC(=O)OC)C(C)C)[nH]4)ccc32)[nH]1)C(C)C [Compound 2, dimethyl N,N′-([(6S)-6-(2-Cyclopropyl-1,3-thiazol-5-yl)-1-fluoro-6H-indolo[1,2-c][1,3]benzoxazine-3,10-diyl]bis{1H-imidazole-5,2-diyl-(2S)-pyrrolidine-2,1-diyl[(2S)-3-methyl-1-oxobutane-1,2-diyl]})dicarbamate]
affinity for HCV NS5A [1]: sub- to low-picomolar | Mean ± SD HCV RNA change from baseline to 24 h ([2]; 150 mg/day): 1.2 ± 0.3 log10 IU/mL | Mean ± SD HCV RNA maximum change from baseline ([2]; 150 mg/day): 2.6 ± 1.1 log10 IU/mL | Mean ± SD HCV RNA change from baseline to 24 h ([2]; 300 mg/day): 1.9 ± 0.2 log10 IU/mL | Mean ± SD HCV RNA maximum change from baseline ([2]; 300 mg/day): 4.0 ± 0.4 log10 IU/mL | Mean ± SD HCV RNA change from baseline to 24 h ([2]; 600 mg/day): 2.1 ± 0.2 log10 IU/mL | Mean ± SD HCV RNA maximum change from baseline ([2]; 600 mg/day): 4.4 ± 0.7 log10 IU/mL | Mean ± SD HCV RNA change from baseline to 24 h [3]: 2.3 ± 0.3 log10 IU/mL | Mean ± SD HCV RNA maximum change from baseline [3]: 4.5 ± 0.3 log10 IU/mL | Individual HCV RNA maximum change from baseline ([4]; GT1b individual subjects, listed as Compd 2): GT1b: 4.0, log10 IU/mL | Individual HCV RNA maximum change from baseline ([4]; GT2 individual subject): GT2: 4.8 log10 IU/mL | Mean ± SD HCV RNA change from baseline to 24 h ([4]; N = 6): 2.4 ± 0.2 log10 IU/mL | Mean ± SD HCV RNA maximum change from baseline ([4]; N = 6): 4.6 ± 0.5 log10 IU/mL
